# Measured values from article PMC5011342, “A high throughput drug screening assay to identify compounds that promote oligodendrocyte differentiation using acutely dissociated and purified oligodendrocyte precursor cells” (BMC Research Notes, 2016).
# Structures can show the parent of a compound that is named as a salt. Where two headings read alike, the source gives them in different places.
# Columns and labels:
# [1] = system: acutely dissociated and purified rat OPCs; experiment: Acute OL differentiation assay (MBP expression/cell, immunofluorescent image quantification); format: cell-based; details: sheet "All OLga data"; for activation at 0.4 µM / activation at 2 µM / activation at 10 µM: Rattus norvegicus
# Procedure, shortened: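 Oligodendrocyte precursor cells were enriched from P6-P7 Sprague–Dawley rat brains by immunopanning (RAN-2 and GalC depletion, O4 selection), plated at 5000 cells/well in serum-free, mitogen-free differentiation media on PDL/laminin 96-well view plates, centrifuged at 200×g, and pre-incubated 1–2 h before test compounds were added in quadruplicate. On DIV4, cells were fixed, stained for MBP and DAPI, imaged automatically, and MBP expression per cell was quantified.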
# expanded OPCs = experiment: cells; details: for viability at 0.1 µM / viability at 1 µM / viability at 10 µM: Rattus norvegicus, 72 h; for 0.1 µM (% DMSO) / 1 µM (% DMSO) / 10 µM (% DMSO): alamarBlue viability of expanded OPCs; for 0.1 µM (% DMSO): compound at 0.1 µM; for 1 µM (% DMSO): compound at 1 µM; for 10 µM (% DMSO): compound at 10 µM
# Procedure, shortened: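 Expanded OPCs seeded at 10,000 cells/well in differentiation media, then exposed to NCC library compounds at 10, 1 and 0.1 µM (quadruplicate, 0.1% DMSO) for three days. Viability read as alamarBlue fluorescence (560/590 nm) after 4 h at 37 °C; tunicamycin 5 ng/ml served as toxicity control.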
# [2] = 0.4 uM test compound, relative to quetiapine, read-out: OL differentiation, 0.4 uM (% Quet)
# [3] = 2 uM test compound, relative to quetiapine, read-out: OL differentiation, 2 uM (% Quet)
# [4] = read-out: 0.1 µM (% DMSO), alamarBlue viability of expanded OPCs, compound at 0.1 µM, sheet All Tox data
# [5] = read-out: 1 µM (% DMSO), alamarBlue viability of expanded OPCs, compound at 1 µM, sheet All Tox data
# [6] = read-out: 10 µM (% DMSO), alamarBlue viability of expanded OPCs, compound at 10 µM, sheet All Tox data
# [7] = test compound at 2 uM, NCC library screen, relative to quetiapine, read-out: 2 uM (% Quet)
# [8] = test compound at 10 uM, NCC library screen, relative to quetiapine, read-out: 10 uM (% Quet)
# [9] = read-out: 0.1 µM (% DMSO), alamarBlue viability, NCC library compound at 0.1 µM, sheet "All Tox data"
# [10] = read-out: 1 µM (% DMSO), alamarBlue viability, NCC library compound at 1 µM, sheet "All Tox data"
# [11] = read-out: 10 µM (% DMSO), alamarBlue viability, NCC library compound at 10 µM, sheet "All Tox data"
# [12] = 10 uM test compound, relative to quetiapine, read-out: OL differentiation, 10 uM (% Quet)
# [13] = test compound at 2 uM, MBP expression relative to quetiapine, NCC library screen, read-out: 2 uM (% Quet)
# [14] = test compound at 10 uM, MBP expression relative to quetiapine, NCC library screen, read-out: 10 uM (% Quet)
SMILES,"activation at 2 µM [1, 3] [%]",viability at 0.1 µM (expanded OPCs; [4]) [%],viability at 1 µM (expanded OPCs; [5]) [%],viability at 10 µM (expanded OPCs; [6]) [%],"activation at 2 µM [1, 7] [%]",0.1 µM (% DMSO) (expanded OPCs; relative to DMSO control),1 µM (% DMSO) (expanded OPCs; relative to DMSO control),10 µM (% DMSO) (expanded OPCs; relative to DMSO control),further results
CNCC[C@@H](Oc1ccccc1C)c1ccccc1 [Atomoxetine],-20.9,87.4,74.9,33.8,–,–,–,–,"activation at 0.4 µM [1, 2]: -17.2%"
C[n+]1ccccc1/C=N/O [Pralidoxime],–,–,–,–,-5,–,–,–,"activation at 10 µM [1, 8]: -3.8%; viability at 0.1 µM (expanded OPCs; [9]): 90.3%; viability at 1 µM (expanded OPCs; [10]): 93.1%; viability at 10 µM (expanded OPCs; [11]): 89.1%"
C[C@]12C=CC(=O)C=C1CC[C@@H]1[C@@H]2[C@@H](O)C[C@@]2(C)[C@H]1CC[C@]2(O)C(=O)COC(=O)CCC(=O)O [Prednisolone hemisuccinate],–,–,–,–,10.2,–,–,–,"activation at 10 µM [1, 8]: 9.3%; viability at 0.1 µM (expanded OPCs; [9]): 107%; viability at 1 µM (expanded OPCs; [10]): 95%; viability at 10 µM (expanded OPCs; [11]): 94.3%"
CN(CCOc1ccc(CC2SC(=O)NC2=O)cc1)c1ccccn1 (stereo not shown) [Rosiglitazone maleate],7.9,95.3,103,158,–,–,–,–,–
Cc1ccc(C)c(OCCCC(C)(C)C(=O)O)c1 [Gemfibrozil],–,–,–,–,0.66,90.1,88.1,86.3,"activation at 10 µM [1, 8]: 16.1%"
Cc1cn([C@H]2C=C[C@@H](CO)O2)c(=O)[nH]c1=O [Stavudine],-25.8,110,91.5,107,–,90.1,97.1,101.2,"activation at 10 µM [1, 12]: -25%; activation at 2 µM [1, 13]: -21.6%; activation at 10 µM [1, 14]: -35.1%"
CN1CCCC(n2nc(Cc3ccc(Cl)cc3)c3ccccc3c2=O)CC1 (stereo not shown) [Azelastine],-19,90.1,51.5,12,–,–,–,–,"activation at 0.4 µM [1, 2]: 1%"
CN(C)CCC=C1c2ccccc2COc2ccccc21 [Doxepin],47.3,81.5,85,64.4,36,109.3,91.6,52.1,"activation at 10 µM [1, 12]: 37.1%; activation at 0.4 µM ([1]; test compound at 0.4 uM, NCC library screen, relative to quetiapine, read-out: 0.4 uM (% Quet)): 2.7%"
Fc1cncnc1 [5-fluoropyrimidine],-16.3,–,–,–,–,–,–,–,"activation at 10 µM [1, 12]: -9.2%; viability at 0.1 µM (expanded OPCs; [9]): 89.9%; viability at 1 µM (expanded OPCs; [10]): 85.6%; viability at 10 µM (expanded OPCs; [11]): 80.4%"
CCOC(=O)[C@H](CCc1ccccc1)N[C@@H](C)C(=O)N1Cc2ccccc2C[C@H]1C(=O)O [Quinapril],–,–,–,–,–,95.3,90.0,85.6,"activation at 2 µM [1, 13]: 2.2%; activation at 10 µM [1, 14]: -12.2%"
Sc1ncnc2nc[nH]c12 [Mercaptopurine],–,–,–,–,–,92.3,92.7,95.9,"activation at 2 µM [1, 13]: 3.6%; activation at 10 µM [1, 14]: -5.6%"
O=C(O[C@@H]1Cc2c(O)cc(O)cc2O[C@@H]1c1cc(O)c(O)c(O)c1)c1cc(O)c(O)c(O)c1 [Epigallocatechin gallate],–,–,–,–,–,–,–,–,"OL differentiation, 0.4 uM (% Quet) ([1]; 0.4 uM test compound, relative to quetiapine): -15.9 % Quet; OL differentiation, 2 uM (% Quet) ([1]; 2 uM test compound, relative to quetiapine): 21.7 % Quet; 0.1 µM (% DMSO) (expanded OPCs; sheet All Tox data): 81.9 % DMSO; 1 µM (% DMSO) (expanded OPCs; sheet All Tox data): 78.8 % DMSO; 10 µM (% DMSO) (expanded OPCs; sheet All Tox data): 48.5 % DMSO"
CCc1ccc(CCOc2ccc(CC3SC(=O)NC3=O)cc2)nc1 (stereo not shown) [Pioglitazone],13.3,96.9,120,164,–,–,–,–,"activation at 10 µM [1, 12]: 55.6%"
COCCCOc1ccnc(C[S+]([O-])c2nc3ccccc3[nH]2)c1C (stereo not shown) [Rabeprazole],–,–,–,–,-8.5,–,–,–,"activation at 10 µM [1, 8]: -69.9%; viability at 0.1 µM (expanded OPCs; [9]): 101%; viability at 1 µM (expanded OPCs; [10]): 85.1%; viability at 10 µM (expanded OPCs; [11]): 76.7%"
